Results as given in patent US20090203678A1, “PHARMACEUTICAL COMPOSITIONS FOR THE TREATMENT OF PROTOZOAN PARASITIC DISEASES” (priority 2006, published 2009).
Peptide text beside a SMILES is read from it. * marks the point of attachment. Cbz = O=C(OCc1ccccc1)*; CH2F = FC*

How the values were obtained:
RhoA/Rho-kinase pathway = assay: G-LISA RhoA/Rho-kinase pathway activation assay in HLEC co-incubated with P. falciparum pRBC; format: cell-based, human; conditions: Fasudil 30 μM, 24 hours pRBC-contact co-incubation with HLEC, compared to pRBC alone, p<0.05 (FIG. 2)
Experimental: Activity of RhoA and its downstream effector Rho-kinase was assessed using G-LISA™ RhoA Activation Assay Biochem Kit purchased from Cytoskeleton (Denver, Colo.). The principle of the assay is to determine the amount of active GTP-bound RhoA extracted from cultured cells with a Rho-GTP-binding protein coated 96-well plate and final detection with immunoreagents. Briefly, HLEC were cultured in 6-well plates until 50-70% confluence as recommended by the manufacturer and exposed to P. falciparum infected erythrocytes or non infected erythrocytes at 1% of hematocrit and 50% of parasitemia. When used, Fasudil was added concomitantly with parasites at 30 μM. After 24 hours of incubation cells were washed and ice-cold lysed in phosphate buffer saline containing protease inhibitors. Cell lysates were then clarified by centrifugation at 4° C. 10,000 rpm for 2 min before measurement of protein concentrations. Cell extracts were equalized with lysis buffer to give identical protein concentrations before incubation in Rho-GTP affinity plate for 30 min at 4° C. […]
Briefly, RhoA activity in HLEC co-incubated during 24 hours with P. falciparum infected red blood cells (pRBC) or non infected red blood cells (RBC) was measured using the G-LISA™ RhoA activation kit (Cytoskeleton, Denver Colo.) as described in the Materials and Methods section.

[1] = system: P. falciparum-induced apoptosis of human lung endothelial cells (HLEC); assay: APOPercentage quantitative apoptosis assay, pRBC/HLEC co-incubation; format: cell-based; conditions: 24 hours pRBC exposure, purple dye pixel number (FIG. 4)
Experimental: Endothelial apoptosis was quantitatively assessed using APOPercentage™ dye purchased from Biocolor Ltd. (Belfast, Northern Ireland). The assay uses a purple-red colour dye that is selectively incorporated into apoptotic but not necrotic cells. Unilateral uptake of the dye occurs through phosphatidylserines of the outer membrane of cells that undergo apoptosis. Endothelial cells were cultured in 6-well plates until confluence before exposure to P. falciparum infected erythrocytes during 24 hours. HLEC were incubated for 1 hour with the Apopercentage dye (1/20) before co-incubation time is reached and delicately washed 3 times with PBS. Apoptosis was then quantified by Analytical Digital Photomicroscopy (ADP): for each experiment 4 representative fields of each well of cell cultures were photographed using inverted phase contrast microscope coupled with a digital camera. Images were then transferred to a computer and the level of apoptosis was expressed as a red pixel number counted by Adobe® Photoshop®.
Briefly, APOPercentage™ was used as a mean to quantify induced apoptosis and the effect of Fasudil on cell survival during pRBC/HLEC co-incubations by quantitatively assessing the […] of purple red dye by apoptotic HLEC using Analytical Digital Photomicroscopy (ADP). […]

[2] = system: NF-kappaB nuclear translocation in HLEC; assay: NF-kappaB P65 nuclear translocation (endothelial activation) in pRBC-exposed HLEC; format: cell-based, human; conditions: Fasudil 30 μM added concomitantly with pRBC, 6 hours, P<0.005 (FIG. 8)
Experimental: Briefly, HLEC were cultured in 8-chambers Labtek plates and exposed to pRBC during 6 hours at 1% of hematocrit and 50% of parasitemia. Rho-kinase inhibitor Fasudil was added concomitantly with pRBC at 30 μM. TNFβ at 20 ng/ml was used as a positive control of NF-kappaB nuclear translocation. Cells were then fixed and permeabilized for immunostaining with primary anti-NF-kappaB P65 subunit antibody and secondary FITC-anti-mouse IgG antibody. Nuclei were stained with diamidino-phenylindole (DAPI). After immunostaining of NF-kappaB P65 subunit, results were analysed by fluorescence microscopy and the number of activated HLEC (cells with complete but not partial migration nuclear P65 staining) per each condition (n=4) was counted (FIG. 8).

[3] = system: P. falciparum induced endothelial permeability of HLEC monolayer; assay: Endothelial barrier integrity assay (Evans Blue diffusion through HLEC monolayer); format: cell-based, human
Experimental: In order to measure the effect of treatments on pre-exposed pRBCs endothelial cells, we developed a method based on Evans Blue diffusion through endothelial monolayer. Briefly HLEC were raised on Transwell Permeable supports (polyester membrane, 3 μm pore size, 6.5 mm diameter, Corning Incorporated Life Sciences) until confluence in M199 medium. Mature forms of 3D7 P. falciparum clone were then harvested from culture and adjusted at 1% of hematocrit and 50% of parasitemia before 4 hours co-incubation at 37° C. 5% CO2. After PRBC exposure, endothelial cell monolayers were treated 20 hours with Fasudil (1 μM or 30 μM). […] Lower compartments were finally collected for optical density analysis at 630 nm of diffused Evans Blue, using a standard microtiter plate reader (Bio-Tek™ EL311SX, Instruments Inc).
Briefly, P. falciparum cytoadherence effect on endothelial barrier function was assessed by culturing HLEC in Transwell inserts until confluence before exposing them 4 hours to mature forms of pRBC as above. The quantity of Evans Blue collected in lower compartments was markedly higher in pRBC/HLEC co-incubation conditions than in control RBC/HLEC (p<0.01) or non-exposed endothelial cell conditions (p<0.01). […]
Briefly, HLEC were cultured in Transwell inserts until confluence. […] Endothelial barrier integrity was assessed as described above.

| Compound | activated RhoA concentration ([Rho-GTP], OD 490 nm) (RhoA/Rho-kinase pathway) | decrease in apoptosis of pRBC-exposed HLEC compared to non treated cells ([1]; 1 μM Fasudil) [fold] | decrease in apoptosis of pRBC-exposed HLEC compared to non treated cells ([1]; 30 μM) [fold] | P. falciparum-induced endothelial activation (% cells with nuclear NF-kappaB P65) [2] | quantity of Evans Blue marker in lower compartment (OD 630 nm) ([3]; HLEC exposed 4 hours to pRBC, then 30 μM Fasudil for 20 hours, vs HLEC and pRBC, p<0.01 (FIG. 6)) | quantity of Evans Blue in the lower compartment (OD 630 nm) ([3]; pRBC/HLEC co-incubation in the presence of z-vad 10 μM or 100 μM (FIG. 5)) |
| --- | --- | --- | --- | --- | --- | --- |
| O=S(=O)(c1cccc2cnccc12)N1CCCNCC1 [Fasudil] | significant decrease | 1.4 | 4.1 | significantly reduces | significantly lower |  |
| COC(=O)C[C@H](NC(=O)[C@H](C)NC(=O)[C@@H](NC(=O)OCc1ccccc1)C(C)C)C(=O)CF [z-vad, Z-VAD-fmk] (Cbz-Val-Ala-Asp(OMe)-CH2F) |  |  |  |  |  | significantly reduced |
